ChEMBL document CHEMBL1122195, “Effect of 4'-halogen substitution on the mutagenicity of trans-4-acetamidostilbene and trans-4-(N-hydroxyacetamido)stilbene in the Salmonella typhimurium test system” (1982)

system: Salmonella typhimurium; experiment: Comparative mutagenic activity toward Salmonella Typhimurium strain TA-100 at concentration of 10 nmol/plate; assay type: functional, Salmonella enterica subsp. enterica serovar Typhimurium

Compared with CC(=O)Nc1ccc(/C=C/c2ccccc2)cc1, CC(=O)N(O)c1ccc(/C=C/c2ccccc2)cc1 is higher in Revertants/plate: 385 for the first, 1218 for the second.

First: CC(=O)N(O)c1ccc(/C=C/c2ccc(Cl)cc2)cc1
Second: CC(=O)N(O)c1ccc(/C=C/c2ccc(Br)cc2)cc1
The Revertants/plate of the first is lower: 356 for the first, 374 for the second.

Compared with CC(=O)N(O)c1ccc(/C=C/c2ccc(F)cc2)cc1, CC(=O)Nc1ccc(/C=C/c2ccc(F)cc2)cc1 is lower in Revertants/plate: 825 for the first, 632 for the second.

First: CC(=O)Nc1ccc(/C=C/c2ccc(Cl)cc2)cc1
Second: CC(=O)Nc1ccc(/C=C/c2ccc(Br)cc2)cc1
The Revertants/plate of the first is higher: 382 for the first, 211 for the second.
